pIC50: −log10 of the molar value.

T1 sequence (P03952 391-638 limits assumed): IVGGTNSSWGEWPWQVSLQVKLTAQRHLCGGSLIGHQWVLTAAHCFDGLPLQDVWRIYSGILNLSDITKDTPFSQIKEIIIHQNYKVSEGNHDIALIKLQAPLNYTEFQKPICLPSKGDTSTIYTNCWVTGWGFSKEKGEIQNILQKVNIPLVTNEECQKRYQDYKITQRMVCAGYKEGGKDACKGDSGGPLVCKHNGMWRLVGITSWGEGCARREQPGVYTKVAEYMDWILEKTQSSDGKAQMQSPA
T1 sequence (P03952 20-390 partner limits assumed): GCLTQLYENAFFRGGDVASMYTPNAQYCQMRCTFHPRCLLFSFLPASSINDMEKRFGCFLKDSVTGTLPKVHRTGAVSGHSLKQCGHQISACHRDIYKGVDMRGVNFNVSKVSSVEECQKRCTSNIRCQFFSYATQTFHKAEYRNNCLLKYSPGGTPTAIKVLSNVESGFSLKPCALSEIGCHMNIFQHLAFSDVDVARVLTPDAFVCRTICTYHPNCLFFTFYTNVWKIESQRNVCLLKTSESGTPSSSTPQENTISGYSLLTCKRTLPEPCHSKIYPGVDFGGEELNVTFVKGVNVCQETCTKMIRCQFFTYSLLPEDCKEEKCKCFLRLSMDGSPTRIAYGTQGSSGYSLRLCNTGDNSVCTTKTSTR

This assay has as its target T1, Human plasma kallikrein (Homo sapiens, UniProt P03952).
T1 construct: yields a heavy chain (371 amino acids) and a light chain (248 amino acids); purchased Enzyme Research Laboratories
The experiment in a line: Kallikrein Assay (fluorogenic substrate hydrolysis, AFC release). The format is biochemical. The following applies: purified Human plasma kallikrein 0.5 nM; substrate Acetyl-K—P—R-AFC 100 mM; 50 mM HEPES pH 7.4. The procedure:
The effectiveness of a compound of the present invention as an inhibitor of Kallikrein can be determined using a relevant purified serine protease, and an appropriate synthetic substrate. The rate of hydrolysis of the chromogenic or fluorogenic substrate by the relevant serine protease was measured both in the absence and presence of compounds of the present invention. Assays were conducted at room temperature or at 37° C. […] A decrease in the rate of fluorescence change in the presence of inhibitor is indicative of enzyme inhibition. Such methods are known to one skilled in the art. The results of this assay are expressed as the half-maximal inhibitory concentrations (IC50), or the inhibitory constant, Ki.
Kallikrein determinations were made in 50 mM HEPES buffer at pH 7.4 containing 150 mM NaCl, 5 mM CaCl2), and 0.1% PEG 8000 (polyethylene glycol; Fisher Scientific). Determinations were made using purified Human plasma kallikrein at a final concentration of 0.5 nM (Enzyme Research Laboratories) and the synthetic substrate, Acetyl-K—P—R-AFC (Sigma #C6608) at a concentration of […].
Activity assays were performed by diluting a stock solution of substrate at least tenfold to a final concentration ≤0.2 Km into a solution containing enzyme or enzyme equilibrated with inhibitor. Times required to achieve equilibration between enzyme and inhibitor were determined in control experiments. The reactions were performed under linear progress curve conditions and fluorescence increase measured at 405 Ex/510 Em nm. Values were converted to percent inhibition of the control reaction (after subtracting 100% Inhibition value). IC50 was determined by inflection point from a four parameter logistic curve fit. Ki was calculated using the Cheng Prusoff equation, Ki=IC50/(1+([S]/Km)).
In general, pIC50 refers to −log10 of the IC50, conventionally taken in molar units. A low value points to a high IC50. With `COc1cc(N2C[C@H]3C[C@H]3C2=O)ncc1[C@H](C)n1cc(C(=O)N[C@H]2C[C@@H](c3cc(Cl)ccc3C#N)C2)cn1` (single isomer, unassigned) [Example 11], the pIC50 is 9.05. Then `Cc1cc(N2C[C@H]3C[C@H]3C2=O)ncc1C(C)n1cc(C(=O)N[C@H]2C[C@@H](c3cc(F)ccc3C#N)C2)cn1` (single isomer, unassigned) [Example 34, N-((cis)-3-(2-cyano-5-fluorophenyl)cyclobutyl)-1-((R or S)-1-(4-methyl-6-((1R,5S)-2-oxo-3-azabicyclo[3.1.0]hexan-3-yl)pyridin-3-yl)ethyl)-1H-pyrazole-4-carboxamide], with 8.29; and `N#Cc1ccc(Cl)cc1[C@H]1C[C@@H](NC(=O)c2cnn(Cc3cnc(N4C[C@H]5C[C@H]5C4=O)nc3)c2)C1` [Example 2, N-((cis)-3-(5-chloro-2-cyanophenyl)cyclobutyl)-1-((2-((1R,5S)-2-oxo-3-azabicyclo[3.1.0]hexan-3-yl)pyrimidin-5-yl)methyl)-1H-pyrazole-4-carboxamide], with 7.97. Molecule `Cc1cc(N2C[C@H]3C[C@H]3C2=O)ncc1Cn1cc(C(=O)N[C@H]2C[C@@H](c3cc(Cl)ccc3C#N)C2)c(C(F)F)n1` [Example 38, N-((cis)-3-(5-chloro-2-cyanophenyl)cyclobutyl)-3-(difluoromethyl)-1-((4-methyl-6-((1R,5S)-2-oxo-3-azabicyclo[3.1.0]hexan-3-yl)pyridin-3-yl)methyl)-1H-pyrazole-4-carboxamide] showed a pIC50 of 8.96.

The molecule `Cc1c(N2C[C@H]3C[C@H]3C2=O)ncc([C@@H](C)n2cc(C(=O)NC3CC(c4cc(Cl)ccc4C#N)C3)cn2)c1F` (single isomer, unassigned) [Example 165] had a pIC50 of 9.00. Molecule `Cc1cc(N2C[C@H]3C[C@H]3C2=O)ncc1C(C)n1cc(C(=O)NC2CC(c3cc(Cl)ccc3C#N)C2)c(C(C)O)n1` (single isomer, unassigned) [Example 171] had a pIC50 of 8.25. In the case of `Cc1ccc(C#N)c([C@H]2C[C@@H](NC(=O)c3cn(C(C)c4cnc(N5C[C@H]6C[C@H]6C5=O)c(F)c4C)nn3)C2)n1` (single isomer, unassigned) [Example 136, N-((cis)-3-(3-cyano-6-methylpyridin-2-yl)cyclobutyl)-1-((S or R)-1-(5-fluoro-4-methyl-6-((1R,5S)-2-oxo-3-azabicyclo[3.1.0]hexan-3-yl)pyridin-3-yl)ethyl)-1H-1,2,3-triazole-4-carboxamide], the negative logarithm of the IC50 (pIC50) was 8.85. Compared with the last molecule, the pIC50 is 0.60 log units higher. For `C[C@H](c1cnc(N2C[C@H]3C[C@H]3C2=O)nc1)n1cc(C(=O)N[C@H]2C[C@@H](c3cc(Cl)ccc3C#N)C2)nn1` (single isomer, unassigned) [Example 77], the pIC50 was 8.09. This pIC50 is 0.76 log units lower than that of the molecule before. Then `CC(c1cnc(N2C[C@H]3C[C@H]3C2=O)nc1)n1cc(C(=O)N[C@H]2C[C@@H](c3cc(Cl)ccc3C#N)C2)cn1` (single isomer, unassigned) [Example 4, N-((cis)-3-(5-chloro-2-cyanophenyl)cyclobutyl)-1-((S or R)-1-(2-((1R,5S)-2-oxo-3-azabicyclo[3.1.0]hexan-3-yl)pyrimidin-5-yl)ethyl)-1H-pyrazole-4-carboxamide carboxamide], with 7.76. Molecule `Cc1cc(N2C[C@H]3C[C@H]3C2=O)ncc1[C@@H](C)n1cc(C(=O)NC2CC(c3cc(Cl)ccc3C#N)C2)c([C@H](C)O)n1` (single isomer, unassigned) [Example 169] had a negative-log IC50 (pIC50) of 9.10. Regarding `Cc1cc(N2C[C@H]3C[C@H]3C2=O)ncc1[C@H](C)n1cc(C(=O)N[C@H]2C[C@@](C)(c3cc(Cl)ccc3C(N)=O)C2)nn1` [Example 144, N-((cis)-3-(2-carbamoyl-5-chlorophenyl)-3-methylcyclobutyl)-1-((S)-1-(4-methyl-6-((1R,5S)-2-oxo-3-azabicyclo[3.1.0]hexan-3-yl)pyridin-3-yl)ethyl)-1H-1,2,3-triazole-4-carboxamide], the pIC50 is 9.00. `Cc1c(C(C)n2cc(C(=O)N[C@H]3C[C@@H](c4cc(Cl)ccc4C#N)C3)nn2)cnc(N2C[C@H]3C[C@H]3C2=O)c1F` (single isomer, unassigned) [Example 96, N-((cis)-3-(5-chloro-2-cyanophenyl)cyclobutyl)-1-((R or S)-1-(5-fluoro-4-methyl-6-((1R,5S)-2-oxo-3-azabicyclo[3.1.0]hexan-3-yl)pyridin-3-yl)ethyl)-1H-1,2,3-triazole-4-carboxamide]: the negative logarithm of the IC50 (pIC50) is 9.70. Compared with the last molecule, the pIC50 is 0.70 log units higher.

“N-((cis)-3-(5-chloro-2-cyanophenyl)cyclobutyl)-1-((R)-3-((1R,5S)-2-oxo-3-azabicyclo[3.1.0]hexan-3-yl)-6,7-dihydro-5H-cyclopenta[c]pyridin-7-yl)-1H-1,2,3-triazole-4-carboxamide and N-((cis)-3-(5-chloro-2-cyanophenyl)cyclobutyl)-1-((S)-3-((1R,5S)-2-oxo-3-azabicyclo[3.1.0]hexan-3-yl)-6,7-dihydro-5H-cyclopenta[c]pyridin-7-yl)-1H-1,2,3-triazole-4-carboxamide [Example 153]” had a pIC50 of 7.62.

`Cc1cc(N2C[C@H]3C[C@H]3C2=O)ncc1C1(n2cc(C(=O)N[C@H]3C[C@@H](c4cc(Cl)ccc4C#N)C3)cn2)CC1` [Example 159, N-((cis)-3-(5-chloro-2-cyanophenyl)cyclobutyl)-1-(1-(4-methyl-6-((1R,5S)-2-oxo-3-azabicyclo[3.1.0]hexan-3-yl)pyridin-3-yl)cyclopropyl)-1H-pyrazole-4-carboxamide] had a pIC50 of 8.77. This pIC50 lies 1.15 log units higher than the previous one. The molecule `CC(c1cnc(N2C[C@H]3C[C@H]3C2=O)nc1)n1cc(C(=O)N[C@H]2C[C@@H](c3cc(Cl)ccc3C#N)C2)c(C#N)n1` (single isomer, unassigned) [Example 18, N-((cis)-3-(5-chloro-2-cyanophenyl)cyclobutyl)-3-cyano-1-((S or R)-1-(2-((1R,5S)-2-oxo-3-azabicyclo[3.1.0]hexan-3-yl)pyrimidin-5-yl)ethyl)-1H-pyrazole-4-carboxamide] had a pIC50 of 7.99. This pIC50 is 0.78 log units lower than that of the molecule before. For the molecule `CC(c1ncc(N2C[C@H]3C[C@H]3C2=O)cc1F)n1cc(C(=O)N[C@H]2C[C@@H](c3cc(Cl)ccc3C#N)C2)cn1` (single isomer, unassigned) [Example 27, N-((cis)-3-(5-chloro-2-cyanophenyl)cyclobutyl)-1-((S or R)-1-(3-fluoro-5-((1R,5S)-2-oxo-3-azabicyclo[3.1.0]hexan-3-yl)pyridin-2-yl)ethyl)-1H-pyrazole-4-carboxamide], the negative-log IC50 (pIC50) was 7.73. This pIC50 lies 0.26 log units lower than the previous one.

Turning to `Cc1c(C(C)n2cc(C(=O)N[C@H]3C[C@@H](c4cc(Cl)ccc4C#N)C3)nn2)cnc(N2C[C@H]3C[C@H]3C2=O)c1F` (single isomer, unassigned) [Example 97, N-((cis)-3-(5-chloro-2-cyanophenyl)cyclobutyl)-1-((S or R)-1-(5-fluoro-4-methyl-6-((1R,5S)-2-oxo-3-azabicyclo[3.1.0]hexan-3-yl)pyridin-3-yl)ethyl)-1H-1,2,3-triazole-4-carboxamide], the pIC50 was 8.36. On to `Cc1ccc(C#N)c([C@H]2C[C@@H](NC(=O)c3cn(C(C)c4cnc(N5C[C@H]6C[C@H]6C5=O)c(C)n4)nn3)C2)n1` (single isomer, unassigned) [Example 116, N-((cis)-3-(3-cyano-6-methylpyridin-2-yl)cyclobutyl)-1-((S or R)-1-(6-methyl-5-((1R,5S)-2-oxo-3-azabicyclo[3.1.0]hexan-3-yl)pyrazin-2-yl)ethyl)-1H-1,2,3-triazole-4-carboxamide], for which the pIC50 is 8.16. In turn, `Cc1cc(N2C[C@H]3C[C@H]3C2=O)ncc1C(C)n1cc(C(=O)N[C@H]2C[C@@H](c3cc(Cl)ccc3OC(F)F)C2)nn1` (single isomer, unassigned) [Example 70, N-((cis)-3-(5-chloro-2-(difluoromethoxy)phenyl)cyclobutyl)-1-((S or R)-1-(4-methyl-6-((1R,5S)-2-oxo-3-azabicyclo[3.1.0]hexan-3-yl)pyridin-3-yl)ethyl)-1H-1,2,3-triazole-4-carboxamide] gave a negative-log IC50 (pIC50) of 7.84.

Consider `COc1nc(C(C)n2cc(C(=O)N[C@H]3C[C@@H](c4cc(Cl)ccc4C#N)C3)nn2)cnc1N1C[C@H]2C[C@H]2C1=O` (single isomer, unassigned) [Example 121, N-((cis)-3-(5-chloro-2-cyanophenyl)cyclobutyl)-1-((R or S)-1-(6-methoxy-5-((1R,5S)-2-oxo-3-azabicyclo[3.1.0]hexan-3-yl)pyrazin-2-yl)ethyl)-1H-1,2,3-triazole-4-carboxamide], for which the negative-log IC50 (pIC50) was 8.17.

`Cc1cc(N2C[C@H]3C[C@H]3C2=O)nnc1C(C)n1cc(C(=O)N[C@H]2C[C@@H](c3cc(Cl)ccc3C#N)C2)cn1` (single isomer, unassigned) [Example 53, N-((cis)-3-(5-chloro-2-cyanophenyl)cyclobutyl)-1-((R or S)-1-(4-methyl-6-((1R,5S)-2-oxo-3-azabicyclo[3.1.0]hexan-3-yl)pyridazin-3-yl)ethyl)-1H-pyrazole-4-carboxamide] gave a pIC50 of 8.33. The molecule `Cc1cc([C@H](C)n2cc(C(=O)N[C@H]3C[C@@H](c4cc(Cl)ccc4C#N)C3)nn2)cnc1N1C[C@H]2C[C@H]2C1=O` (single isomer, unassigned) [Example 56] gave a pIC50 of 8.82.

The values are drawn from patent US12528786B2, “Plasma kallikrein inhibitors” (Merck Sharp & Dohme LLC, priority 2020, dated 2026).
